Measurements published in US6864286B2, “Inhibitors of the EGF-receptor tyrosine kinase and methods for their use” (Parker Hughes Institute, priority 1998, dated 2005).
“Also recorded” adds a separate entry of the source.

Key:
[1] = system: MDA-MB-231 breast cancer cells; experiment: Flow cytometric apoptosis assay (MC540 binding / PI permeability); type: cell-based, human; conditions: for Apoptotic fraction [AF] with MC540+/PI+ advanced stage apoptosis: 24 hours
Source text: Loose packing of membrane phospholipid head groups and cell shrinkage precede DNA fragmentation in apoptotic cells, thereby providing MC540 binding as an early marker for apoptosis (Uckun F. M., et al. Clin. Cancer Res. 1998, 4, 901-912; and Kuo, E. A. J. Med. Chem. 1996, 39, 4608-4621). Plasma membrane permeability to propidium iodide (PI, Sigma) develops at a later stage of apoptosis (Uckun F. M., et al. Clin. Cancer Res. 1998, 4, 901-912; and Kuo, E. A. J. Med. Chem. 1996, 39, 4608-4621). MC540 binding and PI permeability were simultaneously measured in breast cancer cells 24 hours after exposure to leflunomide analogs, as described (Uckun F. M., et al. Clin. Cancer Res. 1998, 4, 901-912. Stock solutions of MC540 and PI, each at 1 mg/mL, were passed through a 0.22 μm filter and stored at 4° C. in the dark. Shortly before analysis, suspensions containing 1×10^6 cells were suspended in 5 μg/mL MC540 and 10 μg/mL PI and kept in the dark at 4° C. Whole cells were analyzed with a FACS Calibur or FACS Vantage flow cytometer (Becton Dickinson, San Jose, Calif.). All analyses were done using 488 nm excitation from an argon laser. MC540 and PI emissions were split with a 600 nm short pass dichroic mirror and a 575 nm band pass filter was placed in front of one photomultiplier tube to measure MC540 emission and a 635 nm band pass filter was used for PI emission.
Loose packing of membrane phospholipid head groups and cell shrinkage precede DNA fragmentation in apoptotic cells, thereby providing MC540 binding as an early marker for apoptosis (Uckun, F. M. et al., Science, 1995, 267, 886-891). MC540 binding and propidium iodide (PI) permeability of MDA-MB-231 breast cancer cells were simultaneously measured before and after a 24 hour treatment with 100 μM or 500 μM LFM-A12. Whole cells were analyzed with a FACStar Plus flow cytometer (Becton Dickinson, San Jose, Calif.).

[2] = molecular target: T1, insulin receptor kinase (IRK) (Homo sapiens, UniProt P06213); experiment: Cell-free IRK immune complex kinase assay; type: biochemical; conditions: for effect on enzymatic activity of IRK: at concentrations as high as 350 μM, IRK from HepG2 cells
T1 construct: IRK was immunoprecipitated from the lysates with an anti-IRb antibody; endogenous in cells; host or cells: HepG2 human hepatoma cells (ATCC)
Method: (§1) Immunoprecipitations, immune-complex protein kinase assays, and immunoblotting using the ECL chemiluminescence detection system (Amersham Life Sciences) were conducted as described previously (Vassilev, A., et al. J. Biol. Chem. 1998, in press; Goodman, P. A., et al. J. Biol. Chem. 1998, 273, 17742; Mahajan, S., et al. Mol. Cell. Biol. 1995, 15, 5304; Uckun, F. M., et al. Science 1996, 22, 1096).
Horse radish peroxidase-conjugated sheep anti-mouse, donkey anti-rabbit secondary antibodies and ECL reagents were purchased from Amersham (Oakbrook, Ill.). For insulin receptor kinase (IRK) assays, HepG2 human hepatoma cells grown to approximately 80% confluency were washed once with serum-free DMEM and starved for 3 hour at 37° in a CO2 incubator. Subsequently, cells were stimulated with insulin (Eli Lilly, cat# CP-410;10 units/ml/10×10^6 cells) for 10 minutes at room temperature. Following this IRK activation step, cells were washed once with serum free medium, lysed in NP-40 buffer and IRK was immunoprecipitated from the lysates with an anti-IRb antibody (Santa Cruz, Cat.# sc-711, polyclonal IgG). Prior to performing the immunecomplex kinase assays, the beads were equilibrated with the kinase buffer (30 mM Hepes pH 7.4, 30 mM NaCl, 8 mM MgCl2, 4 mM MnCl2).

BTK = molecular target: T2, BTK (Homo sapiens, UniProt Q06187); experiment: Cell-free BTK immune complex kinase assay; type: biochemical; conditions: for effect on enzymatic activity of BTK: at concentrations as high as 350 μM
T2 construct: made in house; host or cells: Sf21 insect cells (baculovirus)
Method: as §1

HCK = molecular target: T3, HCK (Homo sapiens, UniProt P08631); experiment: Cell-free HCK immune complex kinase assay; type: biochemical; conditions: for effect on enzymatic activity of HCK: at concentrations as high as 350 μM, HCK from transfected COS7 cells
T3 construct: expressed in transfected cells; host or cells: COS-7 simian kidney cells
Method: as §1
For HCK kinase assays, we used HCK-transfected COS-7 cells. The cloning and expression of HCK in COS-7 cells has been described previously (Saouaf, S. J., et al. J. Biol. Chem. 1995, 270, 27072). The pSV7c-HCK plasmid was transfected into 2×10^6 COS-7 cells using Lipofectamine (GIBCO/BRL), and the cells were harvested 48 hours later. The cells were lysed in NP-40 buffer and HCK was immunoprecipitated from the whole cell lysates with an anti-HCK antibody.

T2 sequence (Q06187 whole entry, species assumed): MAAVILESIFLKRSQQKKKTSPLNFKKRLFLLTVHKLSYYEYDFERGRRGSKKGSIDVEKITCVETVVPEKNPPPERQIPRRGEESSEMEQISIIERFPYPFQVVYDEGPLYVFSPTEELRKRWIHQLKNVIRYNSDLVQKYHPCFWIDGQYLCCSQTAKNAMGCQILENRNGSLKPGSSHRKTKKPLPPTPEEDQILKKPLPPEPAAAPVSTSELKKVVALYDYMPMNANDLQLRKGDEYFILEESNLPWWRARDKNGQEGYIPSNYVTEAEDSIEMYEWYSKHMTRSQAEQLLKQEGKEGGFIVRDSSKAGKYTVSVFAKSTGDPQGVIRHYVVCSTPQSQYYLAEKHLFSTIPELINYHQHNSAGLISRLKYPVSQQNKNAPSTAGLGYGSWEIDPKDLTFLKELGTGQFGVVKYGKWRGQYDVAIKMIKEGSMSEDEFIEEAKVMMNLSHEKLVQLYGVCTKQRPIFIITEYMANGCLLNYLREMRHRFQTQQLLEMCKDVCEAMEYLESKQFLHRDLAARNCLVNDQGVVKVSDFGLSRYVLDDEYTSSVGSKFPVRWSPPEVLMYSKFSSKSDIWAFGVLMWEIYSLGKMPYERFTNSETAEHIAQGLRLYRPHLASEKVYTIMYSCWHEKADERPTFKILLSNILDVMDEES
T3 sequence (P08631 whole entry, species assumed): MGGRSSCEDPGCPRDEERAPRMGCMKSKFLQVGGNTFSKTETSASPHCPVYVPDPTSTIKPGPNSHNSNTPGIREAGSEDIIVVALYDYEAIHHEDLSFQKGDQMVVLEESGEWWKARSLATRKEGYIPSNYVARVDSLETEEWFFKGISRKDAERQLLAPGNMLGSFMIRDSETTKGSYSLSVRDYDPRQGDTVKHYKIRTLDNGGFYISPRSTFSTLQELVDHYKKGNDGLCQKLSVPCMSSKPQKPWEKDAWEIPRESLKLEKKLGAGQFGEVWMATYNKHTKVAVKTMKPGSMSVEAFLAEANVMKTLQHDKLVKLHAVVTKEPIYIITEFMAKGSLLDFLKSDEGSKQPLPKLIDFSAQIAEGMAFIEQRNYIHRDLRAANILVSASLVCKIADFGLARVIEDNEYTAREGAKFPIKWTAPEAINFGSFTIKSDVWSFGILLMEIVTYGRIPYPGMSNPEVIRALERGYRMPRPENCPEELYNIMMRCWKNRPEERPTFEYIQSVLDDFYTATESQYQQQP
T1 sequence (P06213 763-1382 limits assumed): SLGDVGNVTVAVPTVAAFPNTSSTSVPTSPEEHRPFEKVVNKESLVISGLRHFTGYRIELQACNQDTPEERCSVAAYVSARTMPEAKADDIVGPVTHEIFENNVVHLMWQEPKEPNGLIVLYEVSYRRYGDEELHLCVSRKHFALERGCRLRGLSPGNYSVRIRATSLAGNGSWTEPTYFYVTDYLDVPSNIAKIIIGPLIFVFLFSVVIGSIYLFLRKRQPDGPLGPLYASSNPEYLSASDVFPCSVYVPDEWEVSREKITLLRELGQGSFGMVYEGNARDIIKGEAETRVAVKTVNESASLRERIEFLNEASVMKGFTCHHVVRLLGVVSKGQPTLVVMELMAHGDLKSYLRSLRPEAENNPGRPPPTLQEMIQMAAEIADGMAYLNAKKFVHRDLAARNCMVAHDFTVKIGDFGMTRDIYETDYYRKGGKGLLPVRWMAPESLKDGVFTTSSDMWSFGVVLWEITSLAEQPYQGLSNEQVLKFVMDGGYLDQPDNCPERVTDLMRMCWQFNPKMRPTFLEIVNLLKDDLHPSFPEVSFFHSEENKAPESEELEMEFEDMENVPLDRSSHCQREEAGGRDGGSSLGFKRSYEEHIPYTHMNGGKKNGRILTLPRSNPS
T1 sequence (P06213 28-758 partner limits assumed): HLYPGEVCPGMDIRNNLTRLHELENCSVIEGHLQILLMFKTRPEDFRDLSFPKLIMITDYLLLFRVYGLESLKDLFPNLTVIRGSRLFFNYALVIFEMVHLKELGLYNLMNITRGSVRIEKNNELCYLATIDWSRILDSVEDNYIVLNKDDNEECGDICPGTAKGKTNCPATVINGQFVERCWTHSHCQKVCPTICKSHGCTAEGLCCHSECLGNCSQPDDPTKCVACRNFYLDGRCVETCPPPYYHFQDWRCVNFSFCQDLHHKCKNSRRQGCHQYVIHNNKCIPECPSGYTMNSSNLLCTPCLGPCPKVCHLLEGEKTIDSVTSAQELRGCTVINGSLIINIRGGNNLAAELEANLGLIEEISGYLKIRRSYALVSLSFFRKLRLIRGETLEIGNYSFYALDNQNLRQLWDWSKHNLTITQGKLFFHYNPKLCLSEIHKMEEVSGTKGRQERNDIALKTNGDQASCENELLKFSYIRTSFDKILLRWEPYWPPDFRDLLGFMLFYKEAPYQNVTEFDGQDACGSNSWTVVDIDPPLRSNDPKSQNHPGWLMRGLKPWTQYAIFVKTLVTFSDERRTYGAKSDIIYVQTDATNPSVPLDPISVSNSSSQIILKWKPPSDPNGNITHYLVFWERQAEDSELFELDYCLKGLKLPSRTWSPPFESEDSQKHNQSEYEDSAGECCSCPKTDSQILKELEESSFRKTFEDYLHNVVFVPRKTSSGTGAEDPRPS

| SMILES | induction of apoptosis ([1]; MDA-MB-231, 24 hours) | effect on enzymatic activity of IRK [2] | effect on enzymatic activity of BTK (BTK) | effect on enzymatic activity of HCK (HCK) | Apoptotic fraction [AF] with MC540+/PI+ advanced stage apoptosis ([1]; MDA-MB-231, 100 μM) [%] | Apoptotic fraction [AF] with MC540+/PI+ advanced stage apoptosis ([1]; MDA-MB-231, 500 μM) [%] | IC50 ([2]; IRK, cell-free, read-out: Inhibition IC50) [µM] | IC50 (BTK; BTK, cell-free, read-out: Inhibition IC50) [µM] | IC50 (HCK; HCK, cell-free, read-out: Inhibition IC50) [µM] |
| --- | --- | --- | --- | --- | --- | --- | --- | --- | --- |
| CC(O)=C(C#N)C(=O)Nc1ccc(C(F)(F)F)cc1 [LFM, α-Cyano-β-hydroxy-β-methyl-N-[4-(trifluoromethyl)phenyl]-propenamide, reference compound] | albeit to a lesser extent, also induced apoptosis | did not affect the enzymatic activity; also recorded: lack of inhibition | did not affect the enzymatic activity | did not affect the enzymatic activity; also recorded: lack of inhibition | – | – | – | – | – |
| C/C(O)=C(\C#N)C(=O)Nc1ccc(OC(F)(F)F)cc1 [LFM-A12, α-Cyano-β-hydroxy-β-methyl-N-[4-(trifluoromethoxy)phenyl]-propenamide] | – | did not affect the enzymatic activity; also recorded: lack of inhibition | did not affect the enzymatic activity | did not affect the enzymatic activity; also recorded: lack of inhibition | 54 | 85 | > 350 | > 175 | > 350 |
